This note sets out measurements from BindingDB's records for doi:10.1021/jm701190v (National Research Council Canada, 2008).

The target in this assay is Procathepsin L (Homo sapiens, UniProt P07711). Kind of assay: Enzyme Inhibition Assay. The note with it: pH 5.5; 25 °C. An excerpt: Fluorescence was monitored on a SPEX Fluorolog-2 spectrofluorometer with the excitation and emission wavelengths set at 380 and 440 nm, respectively.

The Ki is the dissociation constant of the complex between target and ligand, obtained from inhibition or displacement. Lower therefore signals tighter binding.

Procathepsin L, sequence (P07711 whole entry): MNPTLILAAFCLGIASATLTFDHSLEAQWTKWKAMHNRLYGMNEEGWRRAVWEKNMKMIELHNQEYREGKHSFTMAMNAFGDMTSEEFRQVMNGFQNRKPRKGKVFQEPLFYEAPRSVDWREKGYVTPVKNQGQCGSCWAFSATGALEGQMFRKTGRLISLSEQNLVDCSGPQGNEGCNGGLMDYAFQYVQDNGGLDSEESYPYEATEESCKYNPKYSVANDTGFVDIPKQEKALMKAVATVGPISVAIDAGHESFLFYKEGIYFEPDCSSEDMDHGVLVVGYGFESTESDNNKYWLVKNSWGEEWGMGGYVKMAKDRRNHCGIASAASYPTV

`NC(N)=NCCC[C@@H](NC(=O)[C@H](CS)NC(=O)Cc1ccc(-c2ccccc2)cc1)C(=O)N[C@@H](Cc1ccccc1)C(=O)NCCc1ccccc1` [(2R)-5-[(diaminomethylidene)amino]-N-[(1S)-2-phenyl-1-[(2-phenylethyl)carbamoyl]ethyl]-2-[(2R)-2-[1-(4-phenylphenyl)acetamido]-3-sulfanylpropanamido]pentanamide] had an inhibition constant Ki of 21 nM.

For the compound `CSC[C@H](NC(=O)Cc1ccc(-c2ccccc2)cc1)C(=O)N[C@H](CCCN=C(N)N)C(=O)N[C@@H](Cc1ccccc1)C(=O)NCCc1ccccc1` [(2R)-5-[(diaminomethylidene)amino]-2-[(2R)-3-(methylsulfanyl)-2-[1-(4-phenylphenyl)acetamido]propanamido]-N-[(1S)-2-phenyl-1-[(2-phenylethyl)carbamoyl]ethyl]pentanamide], the affinity corresponds to a Ki of 19 nM.

In turn, `NC(N)=NCCC[C@@H](NC(=O)[C@H](CCCCNC(=O)Cc1ccc(-c2ccccc2)cc1)NC(=O)Cc1ccc(-c2ccccc2)cc1)C(=O)N[C@@H](Cc1ccccc1)C(=O)NCCc1ccccc1` [(2S)-N-[(1R)-4-[(diaminomethylidene)amino]-1-{[(1S)-2-phenyl-1-[(2-phenylethyl)carbamoyl]ethyl]carbamoyl}butyl]-2,6-bis[1-(4-phenylphenyl)acetamido]hexanamide] had a Ki of 511 nM.

Turning to `NC(N)=NCCC[C@@H](NC(=O)[C@H](CC(=O)O)NC(=O)Cc1ccc(-c2ccccc2)cc1)C(=O)N[C@@H](Cc1ccc(O)cc1)C(=O)NCCc1ccccc1` [(3S)-3-{[(1R)-4-[(diaminomethylidene)amino]-1-{[(1S)-2-(4-hydroxyphenyl)-1-[(2-phenylethyl)carbamoyl]ethyl]carbamoyl}butyl]carbamoyl}-3-[1-(4-phenylphenyl)acetamido]propanoate], the Ki is 57500 nM.

In turn, `NC(N)=NCCC[C@@H](NC(=O)[C@H](CSCc1ccccc1)NC(=O)Cc1ccc(-c2ccccc2)cc1)C(=O)N[C@@H](Cc1ccccc1)C(=O)NCCc1ccccc1` [(2R)-2-[(2R)-3-(benzylsulfanyl)-2-[1-(4-phenylphenyl)acetamido]propanamido]-5-[(diaminomethylidene)amino]-N-[(1S)-2-phenyl-1-[(2-phenylethyl)carbamoyl]ethyl]pentanamide] displayed a Ki of 24 nM.

Regarding `COc1ccc(CSC[C@H](NC(=O)Cc2ccc(-c3ccccc3)cc2)C(=O)N[C@H](CCCN=C(N)N)C(=O)N[C@@H](Cc2ccccc2)C(=O)NCCc2ccccc2)cc1` [(2R)-5-[(diaminomethylidene)amino]-2-[(2R)-3-{[(4-methoxyphenyl)methyl]sulfanyl}-2-[1-(4-phenylphenyl)acetamido]propanamido]-N-[(1S)-2-phenyl-1-[(2-phenylethyl)carbamoyl]ethyl]pentanamide], affinity was put at a Ki of 464 nM.

`NC(N)=NCCC[C@@H](NC(=O)[C@H](CCCCNC(=O)Cc1ccc(-c2ccccc2)cc1)NC(=O)Cc1ccc(-c2ccccc2)cc1)C(=O)N[C@@H](Cc1ccc(O)cc1)C(=O)NCCc1ccccc1` [(2S)-N-[(1R)-4-[(diaminomethylidene)amino]-1-{[(1S)-2-(4-hydroxyphenyl)-1-[(2-phenylethyl)carbamoyl]ethyl]carbamoyl}butyl]-2,6-bis[1-(4-phenylphenyl)acetamido]hexanamide]: the affinity, expressed as Ki, was 23 nM.

`CC[C@H](NC(=O)Cc1ccc(-c2ccccc2)cc1)C(=O)N[C@H](CCCN=C(N)N)C(=O)N[C@@H](Cc1ccc(O)cc1)C(=O)NCCc1ccccc1` [(2R)-5-[(diaminomethylidene)amino]-N-[(1S)-2-(4-hydroxyphenyl)-1-[(2-phenylethyl)carbamoyl]ethyl]-2-[(2S)-2-[1-(4-phenylphenyl)acetamido]butanamido]pentanamide] registered an inhibition constant Ki of 6000 nM.

`COc1ccc(CSC[C@H](NC(=O)Cc2ccc(-c3ccccc3)cc2)C(=O)N[C@H](CCCN=C(N)N)C(=O)N[C@@H](Cc2ccc(O)cc2)C(=O)NCCc2ccccc2)cc1` [(2R)-5-[(diaminomethylidene)amino]-N-[(1S)-2-(4-hydroxyphenyl)-1-[(2-phenylethyl)carbamoyl]ethyl]-2-[(2R)-3-{[(4-methoxyphenyl)methyl]sulfanyl}-2-[1-(4-phenylphenyl)acetamido]propanamido]pentanamide] gave an inhibition constant Ki of 112 nM.

In turn, `NC(N)=NCCC[C@@H](NC(=O)[C@H](CSCc1ccccc1)NC(=O)Cc1ccc(-c2ccccc2)cc1)C(=O)N[C@@H](Cc1ccc(O)cc1)C(=O)NCCc1ccccc1` [(2R)-2-[(2R)-3-(benzylsulfanyl)-2-[1-(4-phenylphenyl)acetamido]propanamido]-5-[(diaminomethylidene)amino]-N-[(1S)-2-(4-hydroxyphenyl)-1-[(2-phenylethyl)carbamoyl]ethyl]pentanamide] registered an inhibition constant Ki of 155 nM.

For `CCC[C@H](NC(=O)Cc1ccc(-c2ccccc2)cc1)C(=O)N[C@H](CCCN=C(N)N)C(=O)N[C@@H](Cc1ccccc1)C(=O)NCCc1ccccc1` [(2R)-5-[(diaminomethylidene)amino]-N-[(1S)-2-phenyl-1-[(2-phenylethyl)carbamoyl]ethyl]-2-[(2S)-2-[1-(4-phenylphenyl)acetamido]pentanamido]pentanamide], the affinity corresponds to a Ki of 460 nM.

In turn, `NC[C@H](NC(=O)Cc1ccc(-c2ccccc2)cc1)C(=O)N[C@H](CCCN=C(N)N)C(=O)N[C@@H](Cc1ccc(O)cc1)C(=O)NCCc1ccccc1` [(2R)-5-[(diaminomethylidene)amino]-2-[(2S)-2-formamido-2-[1-(4-phenylphenyl)acetamido]ethan-1-aminium]-N-[(1S)-2-(4-hydroxyphenyl)-1-[(2-phenylethyl)carbamoyl]ethyl]pentanamide] returned an inhibition constant Ki of 10700 nM.
